Calls of active or inactive are those of the source.
Legend:
[1] = molecular target: Protein kinase C alpha type (Homo sapiens, UniProt P17252)
[2] = molecular target: T1, Electron transfer flavoprotein subunit beta (Homo sapiens, UniProt P38117)
T1 sequence (P38117 whole entry): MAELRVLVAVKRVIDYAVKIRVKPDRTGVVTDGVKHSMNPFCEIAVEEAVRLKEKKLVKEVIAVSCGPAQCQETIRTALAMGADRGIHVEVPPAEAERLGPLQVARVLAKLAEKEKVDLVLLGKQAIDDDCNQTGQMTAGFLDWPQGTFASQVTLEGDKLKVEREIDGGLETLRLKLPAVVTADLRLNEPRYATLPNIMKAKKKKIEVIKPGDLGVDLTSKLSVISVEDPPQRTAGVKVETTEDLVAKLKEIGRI

[3] = molecular target: 26S proteasome regulatory subunit 6B (Homo sapiens, UniProt P43686)
[4] = molecular target: Putative heat shock protein HSP 90-beta 2 (Homo sapiens, UniProt Q58FF8)
[5] = molecular target: Chromodomain-helicase-DNA-binding protein 4 (Homo sapiens, UniProt Q14839)
[6] = molecular target: Myosin-14 (Homo sapiens, UniProt Q7Z406)
[7] = molecular target: T2, Tyrosine--tRNA ligase, cytoplasmic (Homo sapiens, UniProt P54577)
T2 sequence (P54577 whole entry): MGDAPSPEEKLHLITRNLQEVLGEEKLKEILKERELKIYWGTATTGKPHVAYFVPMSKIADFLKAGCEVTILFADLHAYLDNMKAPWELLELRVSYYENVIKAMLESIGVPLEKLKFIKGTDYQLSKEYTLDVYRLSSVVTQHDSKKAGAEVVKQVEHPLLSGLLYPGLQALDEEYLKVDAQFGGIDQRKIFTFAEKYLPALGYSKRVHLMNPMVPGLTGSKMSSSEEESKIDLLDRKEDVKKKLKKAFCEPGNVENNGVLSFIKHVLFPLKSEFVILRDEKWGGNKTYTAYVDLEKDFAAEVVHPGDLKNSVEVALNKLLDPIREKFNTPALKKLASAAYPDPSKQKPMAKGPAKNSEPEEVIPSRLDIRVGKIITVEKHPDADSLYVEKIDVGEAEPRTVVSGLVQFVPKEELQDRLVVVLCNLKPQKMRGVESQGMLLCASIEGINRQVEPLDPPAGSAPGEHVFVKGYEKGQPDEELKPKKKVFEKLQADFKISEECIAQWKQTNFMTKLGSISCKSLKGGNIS

[8] = molecular target: T3, Phenylalanine--tRNA ligase beta subunit (Homo sapiens, UniProt Q9NSD9)
T3 sequence (Q9NSD9 whole entry): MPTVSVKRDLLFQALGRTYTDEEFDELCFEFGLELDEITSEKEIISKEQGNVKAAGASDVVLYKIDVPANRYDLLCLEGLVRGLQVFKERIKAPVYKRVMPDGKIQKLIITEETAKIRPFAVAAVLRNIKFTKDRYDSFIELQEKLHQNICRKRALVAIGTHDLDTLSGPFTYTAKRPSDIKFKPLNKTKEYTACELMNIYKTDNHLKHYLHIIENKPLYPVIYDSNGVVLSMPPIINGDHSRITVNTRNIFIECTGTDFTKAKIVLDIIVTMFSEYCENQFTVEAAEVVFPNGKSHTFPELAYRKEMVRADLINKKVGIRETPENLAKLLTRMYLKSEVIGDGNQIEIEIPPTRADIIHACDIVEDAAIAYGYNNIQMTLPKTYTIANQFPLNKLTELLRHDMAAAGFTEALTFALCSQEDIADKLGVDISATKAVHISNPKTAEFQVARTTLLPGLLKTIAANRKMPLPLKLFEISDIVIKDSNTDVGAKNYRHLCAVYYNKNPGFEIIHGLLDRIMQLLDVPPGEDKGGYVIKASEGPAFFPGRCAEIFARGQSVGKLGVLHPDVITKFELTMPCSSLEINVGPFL

[9] = molecular target: Interleukin-1 receptor-associated kinase 1 (Homo sapiens, UniProt P51617)
[10] = molecular target: Mitogen-activated protein kinase kinase kinase 4 (Homo sapiens, UniProt Q9Y6R4)
[11] = molecular target: Ephrin type-A receptor 2 (Homo sapiens, UniProt P29317)
[12] = molecular target: Inosine-5'-monophosphate dehydrogenase 2 (Homo sapiens, UniProt P12268)
[13] = molecular target: Adenosine kinase (Homo sapiens, UniProt P55263)
[14] = molecular target: T4, Serine/threonine-protein kinase STK11 (Homo sapiens, UniProt Q15831)
T4 sequence (Q15831 whole entry): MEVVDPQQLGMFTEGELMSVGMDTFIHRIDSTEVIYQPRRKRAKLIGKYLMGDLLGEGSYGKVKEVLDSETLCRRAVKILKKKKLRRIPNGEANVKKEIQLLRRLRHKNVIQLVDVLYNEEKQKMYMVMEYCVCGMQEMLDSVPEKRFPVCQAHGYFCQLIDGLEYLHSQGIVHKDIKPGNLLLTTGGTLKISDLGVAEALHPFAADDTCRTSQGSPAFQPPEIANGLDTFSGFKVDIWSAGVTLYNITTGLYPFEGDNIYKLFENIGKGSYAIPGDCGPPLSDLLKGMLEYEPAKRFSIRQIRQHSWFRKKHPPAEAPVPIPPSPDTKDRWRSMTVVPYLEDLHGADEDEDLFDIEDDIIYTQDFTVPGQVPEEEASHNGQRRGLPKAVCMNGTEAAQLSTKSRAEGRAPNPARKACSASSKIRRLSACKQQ

[15] = molecular target: Wee1-like protein kinase (Homo sapiens, UniProt P30291)
Note: in the data inactive means no Kd found up to 30 µM.

Sequence of Chromodomain-helicase-DNA-binding protein 4 (Q14839 whole entry): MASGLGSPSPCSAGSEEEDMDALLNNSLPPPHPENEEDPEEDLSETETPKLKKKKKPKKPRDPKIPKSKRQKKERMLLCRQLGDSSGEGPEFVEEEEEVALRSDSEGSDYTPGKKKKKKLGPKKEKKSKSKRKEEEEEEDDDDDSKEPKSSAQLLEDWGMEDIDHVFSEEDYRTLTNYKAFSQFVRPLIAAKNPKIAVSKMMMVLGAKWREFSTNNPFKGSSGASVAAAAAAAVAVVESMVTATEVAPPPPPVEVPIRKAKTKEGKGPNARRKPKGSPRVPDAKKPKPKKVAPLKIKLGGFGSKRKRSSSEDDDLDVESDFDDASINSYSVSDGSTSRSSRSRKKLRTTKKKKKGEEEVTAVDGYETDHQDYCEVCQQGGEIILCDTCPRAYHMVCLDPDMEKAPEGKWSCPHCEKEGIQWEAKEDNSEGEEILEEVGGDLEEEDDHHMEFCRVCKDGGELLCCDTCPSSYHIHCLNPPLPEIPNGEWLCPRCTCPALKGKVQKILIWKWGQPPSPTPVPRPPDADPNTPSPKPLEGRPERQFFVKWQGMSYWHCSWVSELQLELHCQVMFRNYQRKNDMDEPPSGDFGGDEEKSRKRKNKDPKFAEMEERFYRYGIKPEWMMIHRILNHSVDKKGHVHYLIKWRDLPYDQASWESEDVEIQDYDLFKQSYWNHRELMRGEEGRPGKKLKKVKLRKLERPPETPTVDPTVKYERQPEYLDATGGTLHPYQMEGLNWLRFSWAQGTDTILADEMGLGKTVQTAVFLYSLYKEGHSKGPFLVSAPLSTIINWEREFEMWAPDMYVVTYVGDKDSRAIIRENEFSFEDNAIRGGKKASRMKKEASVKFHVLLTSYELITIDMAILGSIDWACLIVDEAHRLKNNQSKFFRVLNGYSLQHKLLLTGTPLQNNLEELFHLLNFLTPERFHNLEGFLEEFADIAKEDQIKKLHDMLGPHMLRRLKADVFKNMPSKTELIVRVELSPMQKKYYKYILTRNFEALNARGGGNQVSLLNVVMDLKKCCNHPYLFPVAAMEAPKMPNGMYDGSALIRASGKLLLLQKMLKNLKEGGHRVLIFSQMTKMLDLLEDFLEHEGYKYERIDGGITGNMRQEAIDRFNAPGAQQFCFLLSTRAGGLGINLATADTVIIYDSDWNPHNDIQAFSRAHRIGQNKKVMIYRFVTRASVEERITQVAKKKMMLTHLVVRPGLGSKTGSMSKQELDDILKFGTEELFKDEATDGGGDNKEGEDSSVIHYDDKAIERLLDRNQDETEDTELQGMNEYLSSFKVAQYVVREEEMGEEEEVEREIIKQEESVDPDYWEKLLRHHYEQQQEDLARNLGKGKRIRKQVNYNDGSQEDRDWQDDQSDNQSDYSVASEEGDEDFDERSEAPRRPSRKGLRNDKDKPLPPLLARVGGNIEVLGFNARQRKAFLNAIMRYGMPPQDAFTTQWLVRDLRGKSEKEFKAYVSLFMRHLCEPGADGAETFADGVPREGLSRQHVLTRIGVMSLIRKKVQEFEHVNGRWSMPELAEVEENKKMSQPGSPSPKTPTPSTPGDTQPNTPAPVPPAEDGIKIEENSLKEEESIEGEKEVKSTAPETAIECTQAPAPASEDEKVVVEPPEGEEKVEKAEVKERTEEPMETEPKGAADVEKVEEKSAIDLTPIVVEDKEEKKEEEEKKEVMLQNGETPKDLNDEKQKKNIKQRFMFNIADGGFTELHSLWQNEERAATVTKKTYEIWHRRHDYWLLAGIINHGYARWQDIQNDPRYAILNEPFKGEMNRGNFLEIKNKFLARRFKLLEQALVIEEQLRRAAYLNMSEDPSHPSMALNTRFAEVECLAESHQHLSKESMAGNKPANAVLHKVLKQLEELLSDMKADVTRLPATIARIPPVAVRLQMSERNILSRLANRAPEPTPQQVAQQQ
Sequence of Myosin-14 (Q7Z406 whole entry): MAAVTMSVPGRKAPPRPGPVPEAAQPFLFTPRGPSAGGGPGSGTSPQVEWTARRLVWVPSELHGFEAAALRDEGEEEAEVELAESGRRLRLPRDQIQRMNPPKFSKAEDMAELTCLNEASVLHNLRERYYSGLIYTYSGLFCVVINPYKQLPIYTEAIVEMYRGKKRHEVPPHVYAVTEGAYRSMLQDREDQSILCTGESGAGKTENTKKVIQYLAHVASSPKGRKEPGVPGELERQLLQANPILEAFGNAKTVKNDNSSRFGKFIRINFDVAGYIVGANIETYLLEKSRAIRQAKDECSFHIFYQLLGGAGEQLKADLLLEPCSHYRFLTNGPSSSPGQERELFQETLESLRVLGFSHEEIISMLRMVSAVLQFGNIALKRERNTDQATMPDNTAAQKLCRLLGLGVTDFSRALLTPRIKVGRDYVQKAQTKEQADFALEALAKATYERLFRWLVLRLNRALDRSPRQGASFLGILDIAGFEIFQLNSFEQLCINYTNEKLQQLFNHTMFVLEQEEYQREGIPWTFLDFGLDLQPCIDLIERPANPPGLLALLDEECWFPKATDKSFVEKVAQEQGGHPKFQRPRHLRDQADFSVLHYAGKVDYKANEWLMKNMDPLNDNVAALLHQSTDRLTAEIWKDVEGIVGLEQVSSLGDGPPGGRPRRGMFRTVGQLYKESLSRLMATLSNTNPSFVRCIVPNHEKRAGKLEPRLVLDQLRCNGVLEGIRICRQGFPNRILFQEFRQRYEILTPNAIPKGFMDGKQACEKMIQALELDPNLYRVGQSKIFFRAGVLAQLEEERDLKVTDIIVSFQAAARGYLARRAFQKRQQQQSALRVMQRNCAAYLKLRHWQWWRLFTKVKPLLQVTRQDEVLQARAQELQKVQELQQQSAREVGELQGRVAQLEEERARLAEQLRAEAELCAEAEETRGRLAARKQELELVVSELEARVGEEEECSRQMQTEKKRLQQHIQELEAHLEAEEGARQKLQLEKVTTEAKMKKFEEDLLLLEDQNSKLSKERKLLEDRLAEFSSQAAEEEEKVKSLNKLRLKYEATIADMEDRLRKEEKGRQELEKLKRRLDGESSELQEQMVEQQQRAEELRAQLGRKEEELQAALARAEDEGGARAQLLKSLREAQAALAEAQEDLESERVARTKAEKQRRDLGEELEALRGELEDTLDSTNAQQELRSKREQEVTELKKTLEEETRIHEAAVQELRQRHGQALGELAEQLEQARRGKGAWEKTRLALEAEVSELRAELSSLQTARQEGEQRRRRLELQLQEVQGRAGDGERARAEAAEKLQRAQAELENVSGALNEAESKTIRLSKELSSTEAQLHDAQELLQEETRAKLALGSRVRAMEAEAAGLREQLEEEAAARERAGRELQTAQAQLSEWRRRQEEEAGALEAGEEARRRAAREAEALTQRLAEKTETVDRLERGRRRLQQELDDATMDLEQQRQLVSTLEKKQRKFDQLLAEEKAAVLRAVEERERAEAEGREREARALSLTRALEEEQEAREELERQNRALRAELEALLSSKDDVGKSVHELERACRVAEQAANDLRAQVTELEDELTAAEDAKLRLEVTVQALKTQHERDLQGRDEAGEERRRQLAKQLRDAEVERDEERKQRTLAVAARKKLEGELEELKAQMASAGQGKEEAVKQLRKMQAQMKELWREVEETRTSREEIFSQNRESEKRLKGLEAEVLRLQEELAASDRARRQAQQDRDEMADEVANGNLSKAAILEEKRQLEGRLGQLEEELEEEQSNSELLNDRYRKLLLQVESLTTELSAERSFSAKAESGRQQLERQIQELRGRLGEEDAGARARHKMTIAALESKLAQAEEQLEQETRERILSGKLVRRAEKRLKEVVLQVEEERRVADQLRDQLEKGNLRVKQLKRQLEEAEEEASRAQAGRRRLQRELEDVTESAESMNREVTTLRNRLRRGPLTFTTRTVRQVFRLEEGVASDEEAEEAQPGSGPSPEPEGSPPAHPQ
Sequence of 26S proteasome regulatory subunit 6B (P43686 whole entry): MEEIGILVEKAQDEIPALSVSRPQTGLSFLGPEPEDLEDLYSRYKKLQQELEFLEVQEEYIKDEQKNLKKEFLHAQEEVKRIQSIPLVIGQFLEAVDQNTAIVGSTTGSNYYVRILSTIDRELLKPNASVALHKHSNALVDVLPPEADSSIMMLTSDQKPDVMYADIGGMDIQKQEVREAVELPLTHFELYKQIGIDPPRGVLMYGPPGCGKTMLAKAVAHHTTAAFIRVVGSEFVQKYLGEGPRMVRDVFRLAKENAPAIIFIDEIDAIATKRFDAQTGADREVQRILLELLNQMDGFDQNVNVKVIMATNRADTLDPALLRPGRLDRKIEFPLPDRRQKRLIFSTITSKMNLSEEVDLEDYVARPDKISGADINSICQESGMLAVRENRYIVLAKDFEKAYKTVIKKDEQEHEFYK

SMILES | Kd [1] | Kd [2] | Kd [3] | Kd [4] | Kd [5] | Kd [6] | Kd [7] | Kd [8] | Kd [9] | Kd [10] | Kd [11] | Kd [12] | Kd [13] | Kd [14] | Kd [15]
CCc1cnn2c(NCc3ccc[n+]([O-])c3)cc(N3CCCC[C@H]3CCO)nc12 [DINACICLIB] | > 30 µM (inactive) | > 30 µM (inactive) | > 30 µM (inactive) | > 30 µM (inactive) | 0.003 µM | > 30 µM (inactive) | > 30 µM (inactive) | > 30 µM (inactive) | > 30 µM (inactive) | > 30 µM (inactive) | > 30 µM (inactive) | > 30 µM (inactive) | > 30 µM (inactive) | 0.497 µM (active) | > 30 µM (inactive)
COC(=O)N[C@@H](C)CNc1nccc(-c2cn(C(C)C)nc2-c2cc(Cl)cc(NS(C)(=O)=O)c2F)n1 [ENCORAFENIB] | > 30 µM (inactive) | > 30 µM (inactive) | > 30 µM (inactive) | > 30 µM (inactive) | > 30 µM (inactive) | > 30 µM (inactive) | > 30 µM (inactive) | > 30 µM (inactive) | 0.247 µM (active) | 1.44 µM (active) | > 30 µM (inactive) | > 30 µM (inactive) | > 30 µM (inactive) | > 30 µM (inactive) | > 30 µM (inactive)
CO[C@H]1C[C@@H]2CC[C@@H](C)[C@@](O)(O2)C(=O)C(=O)N2CCCC[C@H]2C(=O)O[C@H]([C@H](C)C[C@@H]2CC[C@@H](OCCO)[C@H](OC)C2)CC(=O)[C@H](C)/C=C(\C)[C@@H](O)[C@@H](OC)C(=O)[C@H](C)C[C@H](C)/C=C/C=C/C=C/1C [EVEROLIMUS] | > 30 µM (inactive) | > 30 µM (inactive) | > 30 µM (inactive) | > 30 µM (inactive) | > 30 µM (inactive) | > 30 µM (inactive) | > 30 µM (inactive) | > 30 µM (inactive) | > 30 µM (inactive) | > 30 µM (inactive) | > 30 µM (inactive) | > 30 µM (inactive) | > 30 µM (inactive) | > 30 µM (inactive) | > 30 µM (inactive)
COCCNCc1ccc(-c2cc3nccc(Oc4ccc(NC(=S)NC(=O)Cc5ccc(F)cc5)cc4F)c3s2)nc1 [GLESATINIB] | > 30 µM (inactive) | > 30 µM (inactive) | > 30 µM (inactive) | > 30 µM (inactive) | > 30 µM (inactive) | > 30 µM (inactive) | > 30 µM (inactive) | > 30 µM (inactive) | > 30 µM (inactive) | > 30 µM (inactive) | > 30 µM (inactive) | > 30 µM (inactive) | > 30 µM (inactive) | > 30 µM (inactive) | > 30 µM (inactive)
Cc1ccc(-n2nc(C(C)(C)C)cc2NC(=O)NCc2cc(F)ccc2Oc2ccc3c(cnn3CCO)c2)cc1 [PEXMETINIB] | > 30 µM (inactive) | > 30 µM (inactive) | > 30 µM (inactive) | > 30 µM (inactive) | > 30 µM (inactive) | > 30 µM (inactive) | > 30 µM (inactive) | > 30 µM (inactive) | 4.37 µM (active) | > 30 µM (inactive) | 2.56 µM (active) | > 30 µM (inactive) | > 30 µM (inactive) | > 30 µM (inactive) | > 30 µM (inactive)
OCCn1cc(-c2cnc3nnn(Cc4ccc5ncccc5c4)c3n2)cn1 [PF-04217903] | > 30 µM (inactive) | > 30 µM (inactive) | > 30 µM (inactive) | > 30 µM (inactive) | > 30 µM (inactive) | > 30 µM (inactive) | > 30 µM (inactive) | > 30 µM (inactive) | > 30 µM (inactive) | > 30 µM (inactive) | > 30 µM (inactive) | > 30 µM (inactive) | > 30 µM (inactive) | > 30 µM (inactive) | > 30 µM (inactive)

Reference: ChEMBL document CHEMBL3991601, “The target landscape of clinical kinase drugs” (Science, 2017)
